Consider 62 compounds from patent publication US20030032813A1, “Rhodanine carboxylic acid derivatives for the treatment and prevention of metabolic bone disorders” (Angelika Esswein, Wolfgang Schaefer, and Konrad Honold, priority 1998, published 2003).

Test system in one data set: not given
Assay: not given
In the case of `O=C(O)CC(C(=O)O)N1C(=O)C(=Cc2cc3ccccc3s2)SC1=S` (stereo not drawn), the melting point is 240 °C (dec.).

As to `O=C(O)CN1C(=O)C(=Cc2cc3ccccc3s2)SC1=S`, the melting point was in the range of 292 to 294 °C.

Take `O=C(O)CN1C(=O)C(=Cc2ccc(O)cc2)SC1=S`: the melting point fell in the range of 230 to 232 °C.

For `COc1cc(C)c(C=C2SC(=S)N(CC(=O)O)C2=O)cc1C`, the melting point was determined as 240 °C.

`COc1ccc(C=C2SC(=S)N(CC(=O)O)C2=O)cc1C` came in with a melting point of 235 to 236 °C.

`CC(C)(C)c1cc(C=C2SC(=S)N(C(CCC(=O)O)C(=O)O)C2=O)cc(C(C)(C)C)c1O` (stereo not drawn): the melting point was 130 °C (dec.).

`O=C(O)CCC(C(=O)O)N1C(=O)C(=Cc2cc3ccccc3s2)SC1=S` (stereo not drawn) had a melting point of 220 to 221 °C.

In turn, `O=C(O)CN1C(=O)C(=Cc2ccc(OCc3ccccc3)c(OCc3ccccc3)c2)SC1=S` returned a melting point of 187 to 188 °C.

For the compound `CC(C)(C)c1cc(C=C2SC(=S)N(C(CC(=O)O)C(=O)O)C2=O)cc(C(C)(C)C)c1O` (stereo not drawn), the melting point is 240 °C (dec.).

For the compound `O=C(O)CN1C(=O)C(=Cc2ccc(OCc3ccccc3)cc2)SC1=S`, the melting point fell in the range of 205 to 206 °C.

The compound `CC(=C1SC(=S)N(CC(=O)O)C1=O)c1cc(O)cc(O)c1` displayed a melting point of 184 to 188 °C.

Regarding `O=C(O)COc1ccc(CC=C2SC(=S)N(CC(=O)O)C2=O)cc1`, the melting point is 111 to 120 °C (dec.).

On to `O=C(O)CN1C(=O)C(=Cc2ccc(O)c(O)c2O)SC1=S`, for which the melting point is 263 °C (dec.).

For `COc1cc(O)c(C=C2SC(=S)N(CC(=O)O)C2=O)c(OC)c1`, the melting point is 194 °C (dec.).

In turn, `O=C(O)CCN1C(=O)C(=Cc2ccc(OCc3ccccc3)cc2)SC1=S` came in with a melting point of 188 to 191 °C.

Compound `CC(C(=O)O)N1C(=O)C(=Cc2ccc(OCc3ccccc3)cc2)SC1=S` (stereo not drawn) yielded a melting point of 125 to 128 °C.

For `O=C(O)CN1C(=O)C(=Cc2cc(OCc3ccccc3)ccc2O)SC1=S`, the melting point is 130 to 133 °C.

`COc1ccc(COc2ccc(C=C3SC(=S)N(CC(=O)O)C3=O)cc2)cc1`: the melting point lay in the range of 172 to 173 °C.

`O=C(O)CN1C(=O)C(=Cc2ccc(OCc3ccc4c(c3)OCO4)cc2)SC1=S`: the melting point is 206 to 207 °C.

`O=C(O)CCCCCN1C(=O)C(=Cc2cc(O)c(O)c(O)c2)SC1=S` displayed a melting point of 212 to 214 °C.

`COc1cccc(COc2ccc(C=C3SC(=S)N(CC(=O)O)C3=O)cc2)c1` came in with a melting point of 191 to 193 °C.

On to `Cc1cc(C=C2SC(=S)N(CC(=O)O)C2=O)cc(C)c1O`, for which the melting point was 277 to 279 °C.

For the compound `CC(C)(C)c1cc(C=C2SC(=S)N(C(Cc3c[nH]c4ccccc34)C(=O)O)C2=O)cc(C(C)(C)C)c1O` (stereo not drawn), the melting point was 140 °C (dec.).

Regarding `O=C(O)CN1C(=O)C(=CC2=CC=C(OCc3ccccc3)C(O)(O)C2)SC1=S`, the melting point was 178 to 180 °C.

`O=C(O)CN1C(=O)C(=Cc2cc(OCc3ccccc3)ccc2OCc2ccccc2)SC1=S` displayed a melting point of 196 to 198 °C.

Regarding `CC(=O)Oc1cc(C=C2SC(=S)N(CC(=O)O)C2=O)cc(OC(C)=O)c1OC(C)=O`, the melting point is 200 °C (dec.).

The compound `O=C(O)CN1C(=O)C(=CCCc2ccccc2)SC1=S` displayed a melting point of 108 to 111 °C.

Regarding `CN1C(=O)C(=Cc2cc(C(C)(C)C)c(O)c(C(C)(C)C)c2)SC1=S`, the melting point was above 240 °C.

In the case of `COC(=O)CN1C(=O)C(=Cc2cc(C(C)(C)C)c(O)c(C(C)(C)C)c2)SC1=S`, the melting point lay in the range of 165 to 170 °C.

`CCN(CC)C(=O)CN1C(=O)C(=Cc2cc(C(C)(C)C)c(O)c(C(C)(C)C)c2)SC1=S`: the melting point was in the range of 223 to 225 °C.

In turn, `CC(=O)Nc1ccc2sc(C=C3SC(=S)N(CC(=O)O)C3=O)cc2c1` showed a melting point above 240 °C.

Compound `CCOc1cc2cc(C=CC=C3SC(=S)N(CC(=O)OC)C3=O)sc2cc1OCC` yielded a melting point of 211 to 215 °C.

On to `O=C(O)CN1C(=O)C(=CC2CCN(C(=O)OCc3ccccc3)CC2)SC1=S`, for which the melting point is 114 to 115 °C.

With `CC(C=CC1=C(C)CCCC1(C)C)=CC=CC(C)=CC=C1SC(=S)N(CC(=O)O)C1=O`, the melting point was 144 °C (dec.).

`CC1C(C=C2SC(=S)N(CC(=O)O)C2=O)=CC=C(O)C1(C)O` (stereo not drawn): the melting point is above 240 °C.

`CCOc1c(C)cc(C=C2SC(=S)N(CC(=O)O)C2=O)c(C)c1OCC` showed a melting point of 185 to 190 °C.

For the compound `CCOc1c(C)cc(C=CC=C2SC(=S)N(CC(=O)O)C2=O)c(C)c1OCC`, the melting point was 210 °C (dec.).

In turn, `CCC1=C(C=CC(C)=CC=CC=C2SC(=S)N(CC(=O)O)C2=O)C(CC)(CC)CCC1` came in with a melting point of 192 to 195 °C.

The compound `O=C(O)CCN1C(=O)C(=Cc2ccc3c(c2)OCO3)SC1=S` yielded a melting point of 174 to 176 °C.

The compound `O=C(O)CCN1C(=O)C(=Cc2cccc3ccccc23)SC1=S` came in with a melting point of 159 to 161 °C.

For `O=C(O)CCN1C(=O)C(=CC=Cc2cc3ccccc3s2)SC1=S`, the melting point was 246 to 248 °C.

Take `CCCCN(CCCC)c1ccc(C=C2SC(=S)N(CC(=O)O)C2=O)cc1`: the melting point fell in the range of 186 to 188 °C.

Compound `CCCCCc1ccc(C=C2SC(=S)N(CC(=O)O)C2=O)cc1` gave a melting point of 160 to 162 °C.

As to `COc1cccc(C=C2SC(=S)N(CC(=O)O)C2=O)c1`, the melting point is 193 to 196 °C.

`CCCCCCOc1ccccc1C=C1SC(=S)N(CC(=O)O)C1=O` yielded a melting point of 148 to 150 °C.

Regarding `CC(C)(C)c1cc(C=CC=C2SC(=S)N(CC(=O)O)C2=O)cc(C(C)(C)C)c1O`, the melting point was above 240 °C.

`COc1cc(C=C2SC(=S)N(CC(=O)O)C2=O)cc(OC)c1O` returned a melting point of 238 to 240 °C.

In the case of `O=C(O)CN1C(=O)C(=Cc2ccc(O)c(C(=O)O)c2)SC1=S`, the melting point is above 260 °C.

Consider `COc1cc(C)c2c(c1C=C1SC(=S)N(CC(=O)O)C1=O)Oc1c(c(C)c(O)c3c1C(O)OC3=O)OC2=O` (stereo not drawn), for which the melting point was above 260 °C.

Compound `Cc1[nH]c2ccccc2c1C=C1SC(=S)N(CC(=O)O)C1=O` gave a melting point of 268 to 270 °C.

Consider `CC(=O)Oc1ccc(C=C2SC(=S)N(CC(=O)O)C2=O)cc1OC(C)=O`, for which the melting point fell in the range of 193 to 253 °C.

`O=C(O)CN1C(=O)C(=Cc2ccc3c(c2)CCO3)SC1=S`: the melting point was 246 to 247 °C.

As to `CC(C)(C)c1cc(C=C2SC(=S)N(C(Cc3ccccc3)C(=O)O)C2=O)cc(C(C)(C)C)c1O` (stereo not drawn) [Example 3, 2-[5-(3,5-Di-tert-butyl-4-hydroxy-benzylidene)-4-oxo-2-thioxo-thiazolidin-3-yl]-3-phenyl-propionic acid], the melting point is 160 °C (dec.).

In turn, `O=C(O)CN1C(=O)C(=CC=CC=Cc2cc3ccccc3s2)SC1=S` [Example 13, [5-(5-Benzo [b]thiophen-2-yl-penta-2,4-dienylidene)-4-oxo-2-thioxo-thiazolidin-3-yl]-acetic acid] displayed a melting point above 240 °C.

Turning to `CC(C=CC1=C(C)CCCC1(C)C)=C1SC(=S)N(CC(=O)O)C1=O` [Example 22, 5-[1-Methyl-3-[2,6,6-trimethyl-cyclohex-1-enyl)-allylidene]-4-oxo-2-thioxo-thiazolidin-3-yl-acetic acid], the melting point is 100 °C (dec.).

`CC(C)(C)c1cc(C=C2SC(=S)N(CC(=O)O)C2=O)ccc1O` [Example 23, [5-(3-tert-Butyl-4-hydroxy-benzylidene)-4-oxo-2-thioxo-thiazolidin-3-yl]-acetic acid] had a melting point above 240 °C.

The compound `CC(C)(C)c1cc(C=C2SC(=S)N(CC(=O)O)C2=O)cc(C(C)(C)C)c1O` [Example 25, [5-(3,5-Di-tert-butyl-4-hydroxy-benzylidene)-4-oxo-2-thioxo-thiazolidin-3-yl]-acetic acid] showed a melting point of 120 to 121 °C.

In the case of `CC(C=CC1=C(C)CCCC1(C)C)=CC=C1SC(=S)N(CC(=O)O)C1=O` [Example 46, 5-(3-Methyl-5-(2,6,6trimethyl-cyclohex-1-enyl)-penta-2,4-dienyliden]-4-oxo-2-thioxo-thiazolidin-3-yl-acetic acid], the melting point was 153 to 155 °C.

In turn, `CC(C)(C)c1cc(C=C2SC(=S)N(CCC(=O)O)C2=O)cc(C(C)(C)C)c1O` [Example 60, 3-[5-(3,5-Di-tert-butyl-4-hydroxy-benzylidene)-4-oxo-2-thioxo-thiazolidin-3-yl]-propionic acid] gave a melting point of 218 to 219 °C.

Another data set deals with adenylate cyclase. As to the kind of experiment: assay for the capability of stimulating cyclic adenylate cyclase (cAMP formation). Format: biochemical. From the text:
Compounds of general formula (I) were investigated in a suitable assay for the capability of stimulating cyclic adenylate cyclase.
For the compound `CC(C)(C)c1cc(C=C2SC(=S)N(C(Cc3ccccc3)C(=O)O)C2=O)cc(C(C)(C)C)c1O` (stereo not drawn) [Example 3, 2-[5-(3,5-Di-tert-butyl-4-hydroxy-benzylidene)-4-oxo-2-thioxo-thiazolidin-3-yl]-3-phenyl-propionic acid], the “% cAMP (Test conc. 50 μM)” value is given as 8%.

As to `O=C(O)CN1C(=O)C(=CC=CC=Cc2cc3ccccc3s2)SC1=S` [Example 13, [5-(5-Benzo [b]thiophen-2-yl-penta-2,4-dienylidene)-4-oxo-2-thioxo-thiazolidin-3-yl]-acetic acid], the “% cAMP (Test conc. 50 μM)” value came out at 10%.

As for `O=C(O)CN1C(=O)C(=CC=Cc2cc3ccccc3s2)SC1=S` [Example 16, [5-(3-Benzo [b]thiophen-2-yl-allylidene)-4-oxo-2-thioxo-thiazoldin-3-yl]-acetic acid], the “% cAMP (Test conc. 50 μM)” value is given as 8%.

As to `CC(C=CC1=C(C)CCCC1(C)C)=C1SC(=S)N(CC(=O)O)C1=O` [Example 22, 5-[1-Methyl-3-[2,6,6-trimethyl-cyclohex-1-enyl)-allylidene]-4-oxo-2-thioxo-thiazolidin-3-yl-acetic acid], the “% cAMP (Test conc. 50 μM)” value was found to be 10%.

In the case of `CC(C)(C)c1cc(C=C2SC(=S)N(CC(=O)O)C2=O)ccc1O` [Example 23, [5-(3-tert-Butyl-4-hydroxy-benzylidene)-4-oxo-2-thioxo-thiazolidin-3-yl]-acetic acid], the “% cAMP (Test conc. 50 μM)” value came to 8%.

For the compound `CC(C)(C)c1cc(C=C2SC(=S)N(CC(=O)O)C2=O)cc(C(C)(C)C)c1O` [Example 25, [5-(3,5-Di-tert-butyl-4-hydroxy-benzylidene)-4-oxo-2-thioxo-thiazolidin-3-yl]-acetic acid], the “% cAMP (Test conc. 50 μM)” value worked out at 40%.

Consider `CC(C=CC1=C(C)CCCC1(C)C)=CC=C1SC(=S)N(CC(=O)O)C1=O` [Example 46, 5-(3-Methyl-5-(2,6,6trimethyl-cyclohex-1-enyl)-penta-2,4-dienyliden]-4-oxo-2-thioxo-thiazolidin-3-yl-acetic acid], for which the “% cAMP (Test conc. 50 μM)” value turned out to be 30%.

Take `CC1=C(C=C2SC(=S)N(CCC(=O)O)C2=O)C(C)(C)CCC1` [Example 59, 3-(4-Oxo-2-thioxo-5-(2,6,6-trimetyl-cyclohex-1-enylmethylene)-thiazolidin-3-yl]-propionic acid]: the “% cAMP (Test conc. 50 μM)” value was determined as 15%.

As to `CC(C)(C)c1cc(C=C2SC(=S)N(CCC(=O)O)C2=O)cc(C(C)(C)C)c1O` [Example 60, 3-[5-(3,5-Di-tert-butyl-4-hydroxy-benzylidene)-4-oxo-2-thioxo-thiazolidin-3-yl]-propionic acid], the “% cAMP (Test conc. 50 μM)” value came to 20%.

Take `CC(C=CC1=C(C)CCCC1(C)C)=C1SC(=S)N(CCC(=O)O)C1=O` [Example 72, 3-5-[1-Methyl-3-(2,6,6-trimethyl-cyclohex-1-enyl)-allylidene]-4-oxo-2-thioxo-thiazolidin-3-yl-propionic acid]: the “% cAMP (Test conc. 50 μM)” value is recorded as 15%.

One may read the melting point as the temperature of the solid-liquid transition.
